Read-outs that look alike come from different tables or passages of the source.
Columns and labels:
[1] = target: recombinant DYRK1A kinase (Homo sapiens (Human), UniProt Q13627); experiment: DYRK1A kinase assay (Ser/Thr 18 peptide Z-lyte FRET); format: biochemical; conditions: 30 μM ATP, 1 h room temperature;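 further: Read-out is the coumarin to fluorescein emission ratio, referenced to unphosphorylated (0%) and phosphorylated (100%) Ser/Thr 18 peptide controls, values from dose-response curves by non-linear regression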
[2] = system: α-smooth muscle actin (αSMA) positive LL29 cells; experiment: Inhibition of fibrotic process: αSMA in TGF-β1 treated primary human fibroblasts from IPF patients; format: cell-based; conditions: Homo sapiens, Fibroblast; for EC50: 96 h, Table 8, LL29 fibroblasts from IPF patients, TGF-β1 20 ng/mL, 4 days, dose-response 10 μM to 0.94 nM; for inhibition at 10 µM: read-out: percent value in parentheses beside EC50 >10 μM;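 on all read-outs here: controls were TGF-β1 stimulated wells with DMSO vehicle (positive) and cells given DMSO alone (negative), cultured in F12 medium with 1% fetal bovine serum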
[3] = system: Tau phosphorylation at Ser396 (pSer396); experiment: Tau phosphorylation assay (pSer396 ELISA / western blot) in SH-SY5Y cells; format: cell-based, human; conditions: Homo sapiens, read-out: pSer396 Tau EC50;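 further: EC50 for reduction of Tau pSer396 in lysed cells, measured by colorimetric ELISA or chemiluminescent western blot, both using the same pSer396 antibody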
[4] = system: SW480 colon carcinoma cells; experiment: Cell viability assay (CellTiter-Glo); format: cell-based, human; conditions: Homo sapiens; for EC50: 96 h, SW480 cells, CellTiter-Glo, four days incubation; for inhibition at 10 µM: SW480, read-out: percent inhibition at 10 μM
recombinant GSK3β kinase = recombinant GSK3β kinase (Homo sapiens (Human), UniProt P49841); experiment: GSK3β kinase assay (Ser/Thr 09 peptide Z-lyte FRET); format: biochemical; conditions: 46 μM ATP, 1 h room temperature;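 further: kinase activity read as coumarin to fluorescein emission ratio, 11-point threefold dilutions from 10 µM to 0.0003 µM in duplicate, unphosphorylated and phosphorylated peptide as 0% and 100% controls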
Chain of recombinant GSK3β kinase (P49841 whole entry): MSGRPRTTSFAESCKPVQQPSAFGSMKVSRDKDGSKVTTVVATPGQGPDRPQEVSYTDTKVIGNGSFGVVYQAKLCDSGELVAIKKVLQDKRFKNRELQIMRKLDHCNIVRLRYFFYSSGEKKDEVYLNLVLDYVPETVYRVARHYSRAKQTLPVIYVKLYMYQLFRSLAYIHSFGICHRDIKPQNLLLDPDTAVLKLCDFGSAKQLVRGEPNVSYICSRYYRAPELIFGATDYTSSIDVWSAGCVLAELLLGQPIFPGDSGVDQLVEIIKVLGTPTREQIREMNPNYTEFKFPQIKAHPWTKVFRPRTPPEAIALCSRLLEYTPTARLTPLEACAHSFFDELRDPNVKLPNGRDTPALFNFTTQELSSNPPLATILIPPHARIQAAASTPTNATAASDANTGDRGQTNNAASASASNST

[5] = system: Wnt pathway (Sp5-Luc reporter, TCF/LEF binding sites) in SW480 colon carcinoma cells; experiment: Screening assay for Wnt activity: Sp5-Luc reporter gene assay; format: cell-based, human; conditions: Homo sapiens; for EC50: Sp5-Luc reporter, SW480 cells, 36 to 48 hours; for inhibition at 10 µM: SW480, read-out: percent inhibition at 10 μM;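 on all read-outs here: firefly luciferase luminescence read in stably transduced SW480 cells carrying the Sp5 promoter reporter with eight TCF/LEF sites, compounds given in 0.1% DMSO final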
Method: The screening assay for Wnt activity is described as follows.
Following incubation, 15 μl of BriteLite Plus luminescence reagent (Perkin Elmer) was added to each well of the 384-well assay plates. The plates were placed on an orbital shaker for 2 min and then luminescence was quantified using the Envision (Perkin Elmer) plate reader.

IL-6 = IL-6 inhibition in LPS-stimulated human peripheral blood mononuclear cells (HTRF); format: cell-based; conditions: Homo sapiens, PBMC; for EC50: Table 9, huPBMCs, LPS 50 ng/mL, 22 hours, dose-response starting from 10 μM; for inhibition at 10 µM: read-out: percent value in parentheses beside EC50 >10 μM;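 on all read-outs here: IL-6 detected by HTRF with an XL665- and Cryptate-labelled anti-IL-6 antibody pair, samples run in duplicate, EC50 obtained from a four-parameter Levenberg-Marquardt curve fit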
Method: After 22 hour incubation, a mixture of anti-IL6 XL665 and anti-IL-6 Cryptate diluted in reconstitution buffer (Catalog #62IL6PEC, Cisbio Inc., Bedford, Mass.) was added to each well. […] All samples were processed in duplicate. […] EC50 was determined using software generated by Dotmatics Limited (Windhill Bishops Stortford Herts, UK) using the Levenberg-Marquardt 4 parameter fitting procedure with finite different gradients.

[6] = SH-SY5Y cells, overnight (16-18 h) exposure

Row | SMILES | EC50 [1] [nM] | EC50 [2] [nM] | EC50 [3, 6] [nM] | EC50 [4] [nM] | EC50 (recombinant GSK3β kinase) [nM] | EC50 [5] [nM] | EC50 (IL-6) [nM] | inhibition at 10 µM (IL-6) [%] | inhibition at 10 µM [2] [%] | inhibition at 10 µM [5] [%] | inhibition at 10 µM [4] [%] | EC50 ([3]; SH-SY5Y) [nM]
1 | Cn1cncc1-c1ccc2cnc(NC(=O)CN3CCCCC3)cc2c1 [Compound 275, N-[6-(3-methylimidazol-4-yl)-3-isoquinolyl]-2-(1-piperidyl) acetamide] | 4.7 | 431 | 232 | 1280 | 115 | 1920 | 1140 | – | – | – | – | –
2 | CC(C)CN1CCC(F)(C(=O)Nc2cc3cc(-c4nncn4C)ccc3cn2)CC1 [Compound 280, 4-Fluoro-1-isobutyl-N-(6-(4-methyl-4H-1,2,4-triazol-3-yl)isoquinolin-3-yl) piperidine-4-carboxamide] | 10.8 | 909 | 677 | 9570 | 185 | 2320 | > 10000 | 11.6 | – | – | – | –
3 | Cn1cc(-c2ccc3cnc(NC(=O)C4CCN(C5COC5)CC4)cc3c2)cn1 [Compound 86, N-(6-(1-methyl-1H-pyrazol-4-yl)isoquinolin-3-yl)-1-(oxetan-3-yl)piperidine-4-carboxamide] | 2.5 | > 10000 | 682 | > 10000 | 48 | 4000 | 1770 | – | 14.6 | – | – | –
4 | CC(C)CN1CCC(F)(C(=O)Nc2cc3cc(-c4cn(C)nn4)ccc3cn2)CC1 [Compound 281, 4-Fluoro-1-isobutyl-N-(6-(1-methyl-1H-1,2,3-triazol-4-yl)isoquinolin-3-yl) piperidine-4-carboxamide] | 8.1 | 486 | 518 | > 10000 | 71 | > 10000 | > 10000 | 0 | – | 47 | – | –
5 | Cn1cc(-c2ccc3cnc(NC(=O)C4CCNCC4)cc3c2)nn1 [Compound 452, N-(6-(1-Methyl-1H-1,2,3-triazol-4-yl)isoquinolin-3-yl)piperidine-4-carboxamide] | 0.4 | 220 | 912 | 1450 | 7 | 787 | 2970 | – | – | – | – | –
6 | Cn1cncc1-c1ccc2cnc(NC(=O)C(C)(C)F)cc2c1 [Compound 517, 2-Fluoro-2-methyl-N-(6-(1-methyl-1H-imidazol-5-yl)isoquinolin-3-yl) propanamide] | 9.6 | > 10000 | 1300 | > 10000 | 470 | > 10000 | 9070 | – | 29.9 | 35.8 | 27.5 | –
7 | O=C(Nc1cc2cc(-c3cnn4c3CN(CCF)CC4)ccc2cn1)C1CCN(CC2(C(F)(F)F)CC2)CC1 [Compound 998, N-(6-(5-(2-Fluoroethyl)-4,5,6,7-tetrahydropyrazolo[1,5-a]pyrazin-3-yl)isoquinolin-3-yl)-1-((1-(trifluoromethyl)cyclopropyl)methyl)piperidine-4-carboxamide] | 6.2 | 260 | 638 | 4750 | 102 | 2250 | 7080 | – | – | – | – | –
8 | O=C(CN1C2CCC1CC2)Nc1cc2cc(-c3cnn4c3CN(CCF)CC4)ccc2cn1 [Compound 1000, 2-(7-Azabicyclo[2.2.1]heptan-7-yl)-N-(6-(5-(2-fluoroethyl)-4,5,6,7-tetrahydropyrazolo[1,5-a]pyrazin-3-yl)isoquinolin-3-yl)acetamide] | 11.1 | 2960 | – | 7300 | 270 | 4320 | 8720 | – | – | – | – | 1500
9 | CN1CCN(CC(=O)Nc2cc3cc(-c4cnn5c4CN(CCF)CC5)ccc3cn2)CC1 [Compound 1024, N-(6-(5-(2-Fluoroethyl)-4,5,6,7-tetrahydropyrazolo[1,5-a]pyrazin-3-yl)isoquinolin-3-yl)-2-(4-methylpiperazin-1-yl)acetamide] | 17 | 549 | 1200 | 6770 | 150 | 3510 | > 10000 | 33.1 | – | – | – | –
10 | CC(C(=O)Nc1cc2cc(-c3cnn(C)c3)ccc2cn1)N1CCCCC1 (stereo not shown) [Compound 314, N-(6-(1-Methyl-1H-pyrazol-4-yl)isoquinolin-3-yl)-2-(piperidin-1-yl) propanamide] | 22.1 | 45 | 128 | 1200 | 12 | 859 | 1270 | – | – | – | – | –
11 | Cc1nnc(-c2cc(F)c3cnc(NC(=O)CN4CCOCC4)cc3c2)s1 [Compound 963, N-(8-Fluoro-6-(5-methyl-1,3,4-thiadiazol-2-yl)isoquinolin-3-yl)-2-morpholinoacetamide] | 26.7 | 1190 | 252 | > 10000 | 6 | 1200 | > 10000 | 8.2 | – | – | 49.2 | –
12 | Cn1cc(-c2ccc3cnc(NC(=O)[C@H]4CC[C@H](N5CCOCC5)CC4)cc3c2)cn1 [Compound 6, trans-N-(6-(1-Methyl-1H-pyrazol-4-yl)isoquinolin-3-yl)-4-morpholinocyclohexane-1-carboxamide] | 1.3 | > 10000 | 475 | 1260 | 65 | 1110 | 1290 | – | 45.6 | – | – | –
13 | CC(C)OCCN1CCC(C(=O)Nc2cc3cc(-c4cnn(C)c4)ccc3cn2)CC1 [Compound 90, 1-(2-Isopropoxyethyl)-N-(6-(1-methyl-1H-pyrazol-4-yl)isoquinolin-3-yl) piperidine-4-carboxamide] | 3 | 96 | 302 | 1170 | 42 | 1100 | 1080 | – | – | – | – | –
14 | Cn1cc(-c2ccc3cnc(NC(=O)CN4CCCC4)cc3c2)nn1 [Compound 487, N-(6-(1-Methyl-1H-1,2,3-triazol-4-yl)isoquinolin-3-yl)-2-(pyrrolidin-1-yl) acetamide] | 7.7 | 367 | 161 | 2680 | 7 | 446 | 3300 | – | – | – | – | –
15 | CC(C)CN1CCC[C@@H](C(=O)Nc2cc3cc(-c4cnn5c4CN(CCF)CC5)ccc3cn2)C1 [Compound 1002, (R)—N-(6-(5-(2-Fluoroethyl)-4,5,6,7-tetrahydropyrazolo[1,5-a]pyrazin-3-yl)isoquinolin-3-yl)-1-isobutylpiperidine-3-carboxamide] | 28.5 | > 10000 | 1900 | > 10000 | 425 | 1920 | > 10000 | 5.9 | 27.5 | – | 37.6 | –
16 | Cn1cc(-c2ccc3cnc(NC(=O)CN4CC(C)(C)C4)cc3c2)cn1 [Compound 273, 2-(3,3-Dimethylazetidin-1-yl)-N-[6-(1-methylpyrazol-4-yl)-3-isoquinolyl]acetamide] | 10.7 | 515 | 492 | 1180 | 48 | 1510 | 842 | – | – | – | – | –
17 | Cn1cncc1-c1ccc2cnc(NC(=O)C3CNC3)cc2c1 [Compound 535, N-(6-(1-Methyl-1H-imidazol-5-yl)isoquinolin-3-yl)azetidine-3-carboxamide] | 4.5 | > 10000 | 6200 | > 10000 | 87 | > 10000 | > 10000 | 3.1 | 17.7 | 44.9 | 42 | –
18 | CN1CCN(CC(=O)Nc2cc3cc(-c4cncs4)ccc3cn2)CC1 [Compound 767, 2-(4-Methylpiperazin-1-yl)-N-(6-(thiazol-5-yl)isoquinolin-3-yl)acetamide] | 4.3 | > 10000 | 1000 | 9050 | 157 | 3220 | 3820 | – | 33.2 | – | – | –
19 | Cc1nnc(-c2ccc3cnc(NC(=O)CN4CCCC4)cc3c2)s1 [Compound 932, N-(6-(5-Methyl-1,3,4-thiadiazol-2-yl)isoquinolin-3-yl)-2-(pyrrolidin-1-yl) acetamide] | 16.9 | 594 | 357 | 5450 | 14 | 946 | > 10000 | 7.5 | – | – | – | –
20 | Cn1ncc(-c2ccc3cnc(NC(=O)C4CCOCC4)cc3c2)c1CO [Compound 984, N-(6-(5-(Hydroxymethyl)-1-methyl-1H-pyrazol-4-yl)isoquinolin-3-yl) tetrahydro-2H-pyran-4-carboxamide] | 5.5 | 1240 | 2100 | 3130 | 236 | 2990 | 8760 | – | – | – | – | –

From US10287267B2, “Isoquinolin-3-yl carboxamides and preparation and use thereof” (Samumed, LLC, priority 2016, dated 2019)
